Laboratory results reported in ChEMBL document CHEMBL1123800 (J Med Chem, 1987).

Experiments:
Mustela putorius furo [1] = organism: Mustela putorius furo; assay: Inotropic activity as dose required to cause 20% positive or negative change in contractile force of papillary muscle from ferret (F).; assay type: functional, Muscle tissue
[2] = biological target: cAMP phosphodiesterase (Canis familiaris); assay: Inhibition of canine cardiac cAMP phosphodiesterase (cAMP-PDE)
Canis familiaris [3] = assay: Equieffective dose for heart rate in anesthetized dogs for a maximum dose of 3.0 mg/kg. Values Ranges From :0.3-1.0; assay type: functional, Canis lupus familiaris
Canis familiaris [4] = assay: Equieffective dose for contractility in anesthetized dogs for a maximum dose of 3.0 mg/kg. Values Ranges From :0.2-1.0; assay type: functional, Canis lupus familiaris
Canis familiaris [5] = assay: Equieffective dose for mean arterial pressure in anesthetized dogs for a maximum dose of 3.0 mg/kg. Values Ranges From :2.0; assay type: functional, Canis lupus familiaris, Artery
Canis familiaris [6] = assay: Equieffective dose for contractility in anesthetized dogs for a maximum dose of 1.0 mg/kg. Values Ranges From :0.02-0.05; assay type: functional, Canis lupus familiaris
Canis familiaris [7] = assay: Equieffective dose for mean arterial pressure in anesthetized dogs for a maximum dose of 1.0 mg/kg. Values Ranges From :0.2,0.4; assay type: functional, Canis lupus familiaris, Artery
Canis familiaris [8] = assay: Equieffective dose for heart rate in anesthetized dogs for a maximum dose of 1.0 mg/kg. Values Ranges From :0.01-0.8; assay type: functional, Canis lupus familiaris
Canis familiaris [9] = assay: Equieffective dose for heart rate in anesthetized dogs for a maximum dose of 3.0 mg/kg. Values Ranges From :0.08-0.6; assay type: functional, Canis lupus familiaris
Canis familiaris [10] = assay: Equieffective dose for contractility in anesthetized dogs for a maximum dose of 3.0 mg/kg. Values Ranges From :0.05-0.9; assay type: functional, Canis lupus familiaris
Canis familiaris [11] = assay: Equieffective dose for mean arterial pressure in anesthetized dogs for a maximum dose of 3.0 mg/kg. Values Ranges From :0.6-1.5; assay type: functional, Canis lupus familiaris, Artery
Canis familiaris [12] = assay: Equieffective dose for contractility in anesthetized dogs for a maximum dose of 3.0 mg/kg. Values Ranges From:0.1-0.4; assay type: functional, Canis lupus familiaris
Canis familiaris [13] = assay: Equieffective dose for heart rate in anesthetized dogs for a maximum dose of 3.0 mg/kg. Values Ranges From:0.7-2; assay type: functional, Canis lupus familiaris
Canis familiaris [14] = assay: Equieffective dose for mean arterial pressure in anesthetized dogs for a maximum dose of 3.0 mg/kg. Values Ranges From:0.1-1.4; assay type: functional, Canis lupus familiaris, Artery
Canis familiaris [15] = assay: Equieffective dose for contractility in anesthetized dogs for a maximum dose of 0.1 mg/kg. Values Ranges From :0.005-0.07; assay type: functional, Canis lupus familiaris
Canis familiaris [16] = assay: Equieffective dose for mean arterial pressure in anesthetized dogs for a maximum dose of 0.1 mg/kg. Values Ranges From :0.02-0.04; assay type: functional, Canis lupus familiaris, Artery
Canis familiaris [17] = assay: Equieffective dose for heart rate in anesthetized dogs for a maximum dose of 0.1 mg/kg. Values Ranges From :0.009-0.02; assay type: functional, Canis lupus familiaris
Canis familiaris [18] = assay: Equieffective dose for mean arterial pressure in anesthetized dogs for a maximum dose of 0.3 mg/kg. 0.07-0.3; assay type: functional, Canis lupus familiaris, Artery
Canis familiaris [19] = assay: Equieffective dose for heart rate in anesthetized dogs for a maximum dose of 0.3 mg/kg. Values Ranges From :0.02-0.2; assay type: functional, Canis lupus familiaris
Canis familiaris [20] = assay: Equieffective dose for contractility in anesthetized dogs for a maximum dose of 0.3 mg/kg. Values Ranges From :0.01-0.2; assay type: functional, Canis lupus familiaris
Canis familiaris [21] = assay: Equieffective dose for mean arterial pressure in anesthetized dogs for a maximum dose of 1.0 mg/kg. Values Ranges From :0.04-1.0; assay type: functional, Canis lupus familiaris, Artery
Canis familiaris [22] = assay: Equieffective dose for heart rate in anesthetized dogs for a maximum dose of 1.0 mg/kg. Values Ranges From :0.04-0.3; assay type: functional, Canis lupus familiaris
Canis familiaris [23] = assay: Equieffective dose for contractility in anesthetized dogs for a maximum dose of 1.0 mg/kg. Values Ranges From :0.03-0.07; assay type: functional, Canis lupus familiaris
Mustela putorius furo [24] = organism: Mustela putorius furo; assay: Inotropic activity as dose required to cause 20% positive or negative change in contractile force of papillary muscle from ferret (F); assay type: functional; settings: Muscle tissue
Canis familiaris [25] = assay: Equieffective dose for heart rate in anesthetized dogs for a maximum dose of 3.0 mg/kg. Values ranges from :0.05-0.2; assay type: functional, Canis lupus familiaris
Canis familiaris [26] = assay: Equieffective dose for contractility in anesthetized dogs for a maximum dose of 3.0 mg/kg.; assay type: functional, Canis lupus familiaris
Canis familiaris [27] = assay: Equieffective dose for mean arterial pressure in anesthetized dogs for a maximum dose of 3.0 mg/kg. Values Ranges From: 0.2-2.4; assay type: functional, Canis lupus familiaris, Artery

Row | SMILES | IC50 [2] [µM] | C20 (Mustela putorius furo [1]) [µM] | also measured
1 | Cc1[nH]c(O)nc1C(=O)c1ccc(-c2ncc[nH]2)cc1 | 27 | 1.1 | –
2 | CSc1ccc(C(=O)c2[nH]c(=O)[nH]c2C)cc1 [ENOXIMONE] | – | 3.18 | Heart rate (Canis familiaris [3]): 0.6; Contractility (LV dP/dt) (Canis familiaris [4]): 0.7; Mean arterial blood pressure (Canis familiaris [5]): 2
3 | CCc1[nH]c(O)nc1C(=O)c1ccc(-n2ccnc2C)cc1 | – | 0.7 | Contractility (LV dP/dt) (Canis familiaris [6]): 0.03; Mean arterial blood pressure (Canis familiaris [7]): 0.3; Heart rate (Canis familiaris [8]): 0.3
4 | O=C1CCC(c2ccc(-n3ccnc3)cc2)=NN1 [IMAZODAN] | – | 0.3 | Heart rate (Canis familiaris [9]): 0.3; Contractility (LV dP/dt) (Canis familiaris [10]): 0.3; Mean arterial blood pressure (Canis familiaris [11]): 1
5 | Cc1[nH]c(O)nc1C(=O)c1ccc(-n2cnc3ccccc32)cc1 | 20 | 11 | –
6 | Cc1cn(-c2ccc(C(=O)c3[nH]c(O)nc3C)cc2)cn1 | 65 | 11 | –
7 | CCc1[nH]c(O)nc1C(=O)c1ccc(-c2ncc[nH]2)cc1 | 15 | 0.4 | –
8 | Cc1[nH]c(=O)c(C#N)cc1-c1ccncc1 [MILRINONE] | – | 0.57 | Mean arterial blood pressure (Canis familiaris [18]): 0.2; Heart rate (Canis familiaris [19]): 0.06; Contractility (LV dP/dt) (Canis familiaris [20]): 0.09
9 | Cc1nc(=O)c(C#N)c(NCc2cccnc2)[nH]1 [PELRINONE] | 4 | 0.23 | Mean arterial blood pressure (Canis familiaris [21]): 0.4; Heart rate (Canis familiaris [22]): 0.1; Contractility (LV dP/dt) (Canis familiaris [23]): 0.04
10 | CCc1[nH]c(O)nc1C(=O)c1ccc(-n2ccnc2C)cc1C | 73 | 1.3 | –
11 | CCc1[nH]c(O)nc1C(=O)c1ccc(Cn2ccnc2)cc1 | 30 | 4 | –
12 | CCc1[nH]c(O)nc1C(=O)c1ccc(-n2ccnc2)c(C)c1 | 2 | 0.05 | –
13 | CCc1[nH]c(O)nc1C(=O)c1ccc(-n2ccnc2C)c(C)c1 | 2 | 0.2 | –
14 | CCc1[nH]c(O)nc1C(=O)c1ccc(-n2ccnc2)cc1C | 4 | 0.2 | –
15 | Cc1nc(O)[nH]c1C(=O)c1ccc(-n2c(C)nc(C)c2C)cc1 | > 100 | – | C20 (Mustela putorius furo [24]): Not reached
16 | Cc1[nH]c(O)nc1C(=O)c1ccc(-n2ccnc2)cc1 | 6 | 0.1 | Heart rate (Canis familiaris [25]): 0.1; Contractility (LV dP/dt) (Canis familiaris [26]): <=0.1; Mean arterial blood pressure (Canis familiaris [27]): 0.9
17 | CCc1[nH]c(O)nc1C(=O)c1cccc(-n2ccnc2)c1 | 23 | 0.1 | –

Further lines, with some results ahead:

Row | IC50 [2] [µM] | SMILES | C20 (Mustela putorius furo [1]) [µM] | also measured
18 | 49 | Cc1[nH]c(O)nc1C(=O)c1ccc(-n2ccnc2CO)cc1 | 0.4 | –
19 | 29 | CCCc1nccn1-c1ccc(C(=O)c2[nH]c(O)nc2CC)cc1 | 1 | –
20 | 30 | Cc1[nH]c(O)nc1C(=O)c1ccc(-n2ccnc2C)cc1 | 1 | Contractility (LV dP/dt) (Canis familiaris [12]): 0.3; Heart rate (Canis familiaris [13]): 0.8; Mean arterial blood pressure (Canis familiaris [14]): 0.6
21 | 2 | CCc1[nH]c(O)nc1C(=O)c1ccc(-n2ccnc2)cc1 | 0.063 | Contractility (LV dP/dt) (Canis familiaris [15]): 0.02; Mean arterial blood pressure (Canis familiaris [16]): 0.03; Heart rate (Canis familiaris [17]): 0.016
22 | > 100 | CCc1[nH]c(O)nc1C(=O)c1ccc(-n2cc[n+](C)c2C)cc1 | – | C20 (Mustela putorius furo [24]): Not reached
23 | 25 | CCc1[nH]c(O)nc1C(=O)c1ccc(-n2ccnc2CC)cc1 | 0.1 | –
24 | 40 | CCc1[nH]c(O)nc1C(=O)c1ccc(-n2ccnc2C(C)C)cc1 | 16.3 | –
25 | 19 | CCc1[nH]c(O)nc1C(=O)c1ccc(-n2cc(C)nc2CC)cc1 | 21 | –
26 | 7 | CCc1[nH]c(O)nc1C(=O)c1ccc(-n2ccnc2CCC(C)C)cc1 | 21.7 | –
